Values quoted from earlier work in article PMC7455853 (European Journal of Medicinal Chemistry, 2020).
Where a name gives a salt, the structure may show the parent alone. One block for each molecule: values may come before it.

Assays:
HIF-1 = conditions: read-out: HIF-1 inhibitory activity IC50; HeLa cells
NF–Y binding to the ICB2 = conditions: EMSA
[1] = test system: tubulin (colchicine binding); conditions: at 5 μM

SMILES: COc1ccc2cc3[n+](cc2c1OC)CCc1cc2c(cc1-3)OCO2 [berberine hydrochloride]
IC50 (SrtA): 120 µM

SMILES: Brc1cccc(Nc2ncnc3[nH]ccc23)c1 [compound 8]
IC50 (AURKA): 1.99 µM
IC50 (EGFR): 0.00376 µM

Results, then the molecule that gave them:

IC50 (HIF-1): 10.8 µM
SMILES: O=C(Cc1ccc(O)cc1)n1cc(-c2ccc(O)cc2)c(-c2ccc(O)cc2)c1 [neolamellarin A]

DNA binding affinity (ICB2 site): 0.5 µM
doses giving dose-dependent inhibition of NF–Y binding to the ICB2 (NF–Y binding to the ICB2): ≥ 3 µM
SMILES: COc1ccc(-c2nc3ccc(C(=O)Nc4cn(C)c(C(=O)Nc5cc(C(=O)NCCCN(C)C)n(CCCN)c5)n4)cc3[nH]2)cc1 [compound 19a]

inhibition of colchicine binding [1]: 98%
SMILES: COc1ccc(/C=C\c2cc(OC)c(OC)c(OC)c2)cc1O [CA-4, combretastatin A-4]
